Test results from patent publication US6066649A, “Drug for cardiovascular diseases” (Podzuweit; Thomas, priority 1992, dated 2000).
pIC50, pKi: −log10 of the molar value. Read-outs that look alike come from different tables or passages of the source. Each block holds one molecule with its values, some of them ahead of it.

What was measured:
ADA = conditions: in words; cited from earlier work
human ADA = conditions: read-out: K1 value for human ADA; racemic (±)-EHNA; cited from earlier work
cGMP-stimulated PDE II [1] = target: T1, cGMP-stimulated PDE II (Sus scrofa, UniProt F1SUV3); assay: Test for PDE activity, inhibition of soluble cGMP-stimulated PDE II from swine myocardium; format: biochemical; conditions: 1 μM cAMP or cGMP substrate, 25° C., pH 7.5
T1 construct: soluble cGMP-stimulated PDE II from swine myocardium; from tissue; host or cells: myocardium of male German breed swine, soluble extract, DEAE-Sepharose CL-6B peak fraction
T1 sequence (F1SUV3 1-945): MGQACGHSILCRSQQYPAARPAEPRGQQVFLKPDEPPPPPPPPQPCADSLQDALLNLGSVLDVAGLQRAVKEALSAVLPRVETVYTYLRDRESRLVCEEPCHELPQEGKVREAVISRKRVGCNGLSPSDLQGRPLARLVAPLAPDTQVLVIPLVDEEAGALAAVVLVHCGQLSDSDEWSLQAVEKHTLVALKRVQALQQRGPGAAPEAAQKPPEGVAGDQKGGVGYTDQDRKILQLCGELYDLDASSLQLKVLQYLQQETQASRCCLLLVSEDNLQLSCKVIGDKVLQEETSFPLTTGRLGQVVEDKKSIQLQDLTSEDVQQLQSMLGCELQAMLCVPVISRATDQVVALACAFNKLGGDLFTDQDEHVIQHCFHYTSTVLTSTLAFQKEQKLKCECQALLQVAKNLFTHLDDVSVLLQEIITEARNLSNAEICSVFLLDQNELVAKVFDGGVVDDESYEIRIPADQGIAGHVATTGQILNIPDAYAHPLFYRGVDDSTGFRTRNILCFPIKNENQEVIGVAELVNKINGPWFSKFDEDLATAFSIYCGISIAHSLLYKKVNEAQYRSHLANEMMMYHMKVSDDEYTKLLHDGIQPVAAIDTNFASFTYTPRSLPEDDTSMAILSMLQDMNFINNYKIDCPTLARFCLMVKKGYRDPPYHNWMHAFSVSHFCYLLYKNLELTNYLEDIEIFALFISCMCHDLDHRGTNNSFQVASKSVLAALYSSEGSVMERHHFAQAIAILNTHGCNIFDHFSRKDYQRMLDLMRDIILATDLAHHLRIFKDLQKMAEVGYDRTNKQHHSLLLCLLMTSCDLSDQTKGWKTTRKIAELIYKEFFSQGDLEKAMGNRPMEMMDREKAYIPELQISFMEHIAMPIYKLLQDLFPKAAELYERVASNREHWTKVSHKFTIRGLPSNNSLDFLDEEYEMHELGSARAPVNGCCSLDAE
Source text: (§1) Samples of the left ventricular papillary muscles were obtained with the consent of patient who underwent an exchange of a mitral flap in the Universitats-Krankenhaus Gieβen, FRG. The myocardium samples of pigs (male pigs of the German breed of swine, 25 to 30 kg body weight) were obtained following excision of the hearts under Nembutal anesthesia. The samples were immediately frozen in liquid nitrogen and were then pulverized in a high speed mill and pre-cooled in liquid nitrogen. The frozen tissue powder was sieved through a screen made of stainless steel (-196° C.) (mesh size: 0.315 mm) in an homogenizing buffer (4° C.) (1 ml per 100 mg of powder), comprising (final concentrations): 20 mM of bis-tris, 2 mM of EDTA, 5 mM of 2-mercaptoethanol, 2 mM of benzamidine, 50 μM of phenylmethylsulfonylfluoride, 50 mM of sodium acetate, pH 6.5. All of the following steps were conducted at 4° C. The homogenate was centrifuged at 48,000 g for 30 minutes. […]
(§2) The PDE activity was measured with an off line liquid scintillation spectrometry using HPLC. […] The enzyme activity was measured at 25° C. with 10 minute incubations. […]
(§3) The radioactive substrates and the products of the PDE reaction were determined quantitatively using a RACKBETA 1219 liquid scintillation counter (LKB Wallac, Freiburg, FRG). […]

adenosine deaminase [2] = conditions: cited from earlier work; for inhibition of adenosine deaminase: in words
[3] = test system: other cyclic nucleotide phosphodiesterases; assay: Test for PDE activity, inhibition of the other cyclic nucleotide phosphodiesterases from swine myocardium; format: biochemical; conditions: 1 μM cAMP or cGMP substrate, 25° C., pH 7.5
Source text: as §1, §2, §3

cGMP-stimulated PDE II [4] = target: T2, cGMP-stimulated PDE II (Homo sapiens, UniProt O00408); assay: Test for PDE activity, inhibition of cytosolic cGMP-stimulated PDE II from human myocardium; format: biochemical
T2 construct: cytosolic cGMP-stimulated PDE II isoenzyme from human myocardium; from tissue; host or cells: human left ventricular papillary muscle, soluble extract, DEAE-Sepharose CL-6B peak fraction
Source text: (§4) Samples of the left ventricular papillary muscles were obtained with the consent of patient who underwent an exchange of a mitral flap in the Universitats-Krankenhaus Gieβen, FRG. The myocardium samples of pigs (male pigs of the German breed of swine, 25 to 30 kg body weight) were obtained following excision of the hearts under Nembutal anesthesia. The samples were immediately frozen in liquid nitrogen and were then pulverized in a high speed mill and pre-cooled in liquid nitrogen. […] All of the following steps were conducted at 4° C. The homogenate was centrifuged at 48,000 g for 30 minutes. […] The column was washed with 200 ml of buffer; and the PDE activities were eluted with a linear gradient ranging from 0.05 to 1 M of sodium acetate in buffer (flow time of the gradient: 500 minutes). The flow rate was 1 ml/min. 5 ml fractions were obtained and tested for PDE activity.
(§5) The PDE activity was measured with an off line liquid scintillation spectrometry using HPLC. […] The enzyme activity was measured at 25° C. with 10 minute incubations. The reaction was started with the addition of 50 μl of enzyme solution and terminated through injection of 20 μl of 60% perchloric acid. Aliquots of 20 μl of acidic supernatant were siphoned off and injected into an automated HPLC system (column LiChrospher RP-18e) (250×4 mm; 5 μm packing).
(§6) The data were fitted with four parameters with the aid of the sigmoidal logistic function.
(§7) The soluble PDE isoenzymes from swine and human myocardium were severed by means of anion exchange chromatography using DEAE-sepharose CL-6B. The enzyme activities were called PDE I to IV according to the nomenclature of J. A. Beavo and D. H. Reifsnyder. The PDE II activity was stimulated by means of cGMP (1 μM).

adenosine deaminase [5] = conditions: ADA and cGMP-stimulated PDE
arrhythmias = assay: Antiarrhythmic action; conditions: in words; no test data given
[6] = cited from earlier work
mouse, rat and rabbit = conditions: cited from earlier work
[7] = test system: cGMP content of the rat aorta; conditions: as a function of the dose; cited from earlier work
PDE I = assay: Test for PDE activity, inhibition of soluble PDE I from human myocardium; format: biochemical; conditions: 1 μM cAMP or cGMP substrate, 25° C., pH 7.5
Source text: as §1, §2, §3

cGMP-stimulated PDE II [8] = assay: Test for PDE activity, inhibition of cytosolic cGMP-stimulated PDE II from human myocardium; format: biochemical; conditions: cGMP 1 μM; in words; swine and human myocardium
Source text: as §4, §5, §6, §7

T2 sequence (O00408 1-920 isoform O00408-2): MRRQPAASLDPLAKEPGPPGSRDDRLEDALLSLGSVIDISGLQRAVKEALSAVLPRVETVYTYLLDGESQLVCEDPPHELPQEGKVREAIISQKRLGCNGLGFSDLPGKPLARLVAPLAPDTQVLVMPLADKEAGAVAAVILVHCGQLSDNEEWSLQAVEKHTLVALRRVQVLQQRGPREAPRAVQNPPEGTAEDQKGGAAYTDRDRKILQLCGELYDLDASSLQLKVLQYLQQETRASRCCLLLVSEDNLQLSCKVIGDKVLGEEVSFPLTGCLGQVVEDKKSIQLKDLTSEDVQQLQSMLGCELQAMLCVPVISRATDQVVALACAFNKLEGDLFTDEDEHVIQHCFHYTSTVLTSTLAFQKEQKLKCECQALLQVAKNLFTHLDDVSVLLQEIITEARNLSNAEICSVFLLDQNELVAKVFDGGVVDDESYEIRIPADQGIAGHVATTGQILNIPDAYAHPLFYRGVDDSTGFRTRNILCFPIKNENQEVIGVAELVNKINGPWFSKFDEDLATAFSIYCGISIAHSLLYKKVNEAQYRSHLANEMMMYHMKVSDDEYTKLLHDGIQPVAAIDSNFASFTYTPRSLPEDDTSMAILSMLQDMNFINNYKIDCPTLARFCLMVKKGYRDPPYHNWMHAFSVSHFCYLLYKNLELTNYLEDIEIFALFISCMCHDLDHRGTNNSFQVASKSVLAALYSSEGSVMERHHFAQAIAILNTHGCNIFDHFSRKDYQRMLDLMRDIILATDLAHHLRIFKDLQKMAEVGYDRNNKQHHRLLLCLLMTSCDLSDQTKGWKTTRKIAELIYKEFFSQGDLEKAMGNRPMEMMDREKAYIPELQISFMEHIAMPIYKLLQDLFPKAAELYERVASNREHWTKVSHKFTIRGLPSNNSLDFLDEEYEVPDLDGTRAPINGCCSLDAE

pIC50 (cGMP-stimulated PDE II [1]): 5.70
pIC50 [3]: < 4.00
inhibition of the cGMP-stimulated enzyme at the concentration at which inhibition of the PDE isotypes I, III and IV began (cGMP-stimulated PDE II [4]; human myocardium): more than 99%
pIC50 (cGMP-stimulated PDE II [4]; human myocardium, 1 μM cAMP or cGMP substrate, 25° C., pH 7.5): 6.10
activity as inhibitor of PDE II compared with papaverine, on a molar basis (cGMP-stimulated PDE II [4]; in words): more active
doses having inhibiting effects on both enzymes (adenosine deaminase and cGMP-stimulated PDE) (adenosine deaminase [5]): more than 10^-7 M
SMILES: CCCCCC[C@H]([C@H](C)O)n1cnc2c(N)ncnc21 (relative stereo) [EHNA, erythro-9-(2-hydroxy-3-nonyl)-adenine]
concentrations of EHNA required to inhibit ADA in intact cells (ADA): much higher concentrations
pKi (human ADA): 8.40
pKi (adenosine deaminase [2]; classical competitive inhibition, first bonding step, read-out: inhibition constant K1 of the initial bonding step): 6.70
pKi (adenosine deaminase [2]; fixed enzyme-inhibitor complex after rearrangement, read-out: total inhibition constant): 8.77
inhibition of adenosine deaminase (adenosine deaminase [2]): inhibiting effects both on adenosine deaminase and cGMP-stimulated PDE

SMILES: CCCOc1ccccc1-c1nc2nn[nH]c2c(=O)[nH]1 [2-o-propoxyphenyl-8-azapurine-6-one, 1,4-dihydro-5-(2-propoxyphenyl-7H-1,2,3-triazolo[4,5-d]pyrimidine-7-one)]
antiarrhythmic action (arrhythmias): strong antiarrhythmic agents
solubility in acetone and ethanol and weakly basic solutions ([6]; acetone and ethanol and weakly basic solutions): dissolves in acetone and ethanol and weakly basic solutions
solubility in water ([6]; water): slightly soluble in water
inhibition of adenosine deaminase (adenosine deaminase [2]): does not inhibit the adenosine deaminase
acute oral LD50 (mouse, rat and rabbit; in vivo, po): 1,400-2,000 mg/kg
toxicity (mouse, rat and rabbit; in words): low toxicity
effect on cGMP content of the rat aorta [7]: raises the cGMP content
pIC50 (PDE I): 5.10

SMILES: Nc1ncnc2c1ncn2[C@@H]1O[C@H](CO)[C@@H](O)[C@H]1O [adenosine]
Km (adenosine deaminase [2]; substrate of adenosine deaminase): 20 µM

SMILES: Nc1nc2c(ncn2[C@@H]2O[C@@H]3COP(=O)(O)O[C@H]3[C@H]2O)c(=O)[nH]1 [cGMP]
effect of cGMP on PDE II activity (cGMP-stimulated PDE II [8]): stimulated
